pKi: −log10 of the molar value.

For orientation: pKi means −log10 of the Ki, conventionally taken in molar units.

Assay [1] can be described thus: Displacement of [3H]di-O-tolylguanidine from rat brain membrane sigma 2 receptor after 120 mins in the presence of (+)-pentazocin. (In general: Displacement assays read how much labelled ligand stays bound in the presence of the test substance.)
The species entered for a further assay is Rattus norvegicus. The assay can be described thus: Selectivity ratio of Ki for rat brain membrane sigma 1receptor to Ki for rat brain membrane sigma 2 receptor.
Assay [2] deals with Sigma non-opioid intracellular receptor 1 (Rattus norvegicus, UniProt Q9R0C9). As to the kind of experiment: Displacement of [3H](+)-pentazocine from rat brain membrane sigma 1receptor after 120 mins.
Chain of Sigma non-opioid intracellular receptor 1 (Q9R0C9 whole entry): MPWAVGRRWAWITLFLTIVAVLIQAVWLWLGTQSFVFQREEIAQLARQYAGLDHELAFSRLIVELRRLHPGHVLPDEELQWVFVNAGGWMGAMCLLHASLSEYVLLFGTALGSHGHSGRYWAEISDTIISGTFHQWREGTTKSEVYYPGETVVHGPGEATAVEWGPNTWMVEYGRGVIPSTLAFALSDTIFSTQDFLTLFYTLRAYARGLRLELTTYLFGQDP

`c1ccc(CCCN2CCN(c3ccncc3)CC2)cc1`: the results for the pKi in assay [1] and in assay [2] were 7.08 and 7.47, respectively. Besides, the Ratio Ki in the assay filed under Rattus norvegicus came out at 0.41.
With `c1ccc(CCN2CCN(c3ccccn3)CC2)cc1`, in assay [1], the pKi was 6.92. For the same compound, the Ratio Ki in the assay listed under Rattus norvegicus amounted to 2.7.
As to `c1ccc(CCCN2CCN(c3ccccn3)CC2)cc1`, the pKi in assay [1] is 8.31. The Ratio Ki in the assay filed under Rattus norvegicus stood at 16.9.
Regarding `c1ccc(CCN2CCN(c3cccnc3)CC2)cc1`, the pKi in assay [1] was 6.36; in assay [2], 7.01. Moreover, the Ratio Ki in the assay filed under Rattus norvegicus came out at 0.22.
Consider `c1ccc(CCN2CCN(c3ccncc3)CC2)cc1`, for which the negative logarithm of the Ki (pKi) is 7.16 in assay [1] and 7.38 in assay [2]. Besides, the Ratio Ki in the assay filed under Rattus norvegicus was 0.6.
As for `c1ccc(CCCN2CCN(c3cccnc3)CC2)cc1`, the results for the pKi in assay [1] and in assay [2] were 6.96 and 7.67, respectively. For the same compound, the Ratio Ki in the assay filed under Rattus norvegicus is 0.19.

For the origin of these results see ChEMBL document CHEMBL1156202, “The effect of the pyridyl nitrogen position in pyridylpiperazine sigma ligands” (Bioorg Med Chem Lett, 2010).
